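Tested at 5 concentrations; 48 h exposure; 96-well plates; endpoints linearly interpolated, else capped at highest concentration. TGI: concentration producing complete growth inhibition.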
What was measured:
Experiment in all cases: NCI tumour cell line growth inhibition, 48 h
XF 498 CNS = test system: XF 498 CNS
HOP-18 NSCLC = test system: HOP-18 NSCLC
P388 leukemia = test system: P388 leukemia
KM20L2 colon = test system: KM20L2 colon
SN12K1 renal = test system: SN12K1 renal
SNB-78 CNS = test system: SNB-78 CNS
LXFL 529 NSCLC = test system: LXFL 529 NSCLC
P388/ADR leukemia = test system: P388/ADR leukemia

SMILES	TGI (XF 498 CNS) [µM]	TGI (HOP-18 NSCLC) [µM]	TGI (P388 leukemia) [µM]	TGI (KM20L2 colon) [µM]	TGI (SN12K1 renal) [µM]	TGI (SNB-78 CNS) [µM]	TGI (LXFL 529 NSCLC) [µM]	TGI (P388/ADR leukemia) [µM]
Nc1cc(S(=O)(=O)O)cc2cc(S(=O)(=O)O)c(N=Nc3ccc(-c4ccc(N=Nc5c(S(=O)(=O)O)cc6cc(S(=O)(=O)O)cc(N)c6c5O)cc4)cc3)c(O)c12	> 100	> 100	> 100	> 100	> 100	> 100	–	–
O=Nc1ccc(O)c2ncccc12	–	51.8	–	89.9	–	11.4	12.9	–
c1ccc(-n2cnnc2-c2nsc3ccccc23)cc1	–	> 100	–	> 100	–	> 100	> 100	–
CC(C)=CCc1c(O)ccc2c1OC1c3ccc(O)c(CC=C(C)C)c3OCC21 (stereo not given)	32.6	33.3	37.4	34	20.2	33	–	32.2
C/C1=N\NC(=O)c2ccccc2C(=O)N/N=C(\C)c2cccc1n2.O=[N+]([O-])[O-].[Zn+2]	–	> 100	–	> 100	–	> 100	> 100	–

From PubChem BioAssay (NCI)
